Tested on: Mouse B16 melanoma cells
Assay: Melanin production inhibition test
Assay type: cell-based
Details: 3 days after addition, graded by minimum non-cytotoxic concentration at which ratio of melanin amount was 80% or less
Procedure: A test for melanin production inhibition by the compounds of the formula (1) was conducted. The test method is as follows.
Melanin Production Inhibition Test
(1) Inoculation of Cells and Addition of Test Substances
Mouse B16 melanoma cells were inoculated in a six well plate at 100,000 cells/well. The next day, test substance solutions (solvent: DMSO) were added.
(2) Cell Proliferation Test
Three days after the addition of the test substance solution, the medium was removed by aspiration. Then 1 ml of EMEM medium containing 10% Alamar Blue solution was added, and a reaction was allowed to proceed at 37° C. After 30 minutes, 100 μL of the reaction mixture was transferred to a 96 well plate and fluorescence was measured at an excitation wavelength of 544 nm and a measurement wavelength of 590 nm. Using the value thus measured as a relative value of cell count, a ratio of the cell count (% cell count) of the test substance-added group to the test substance-absent group (group in which only the solvent was added) was calculated. […] It was determined that a compound having the % cell count of 80% or more was non-cytotoxic, and that a compound having the % cell count of less than 80% was cytotoxic.
(3) Quantification of Melanin
The cells after the cell proliferation test were washed with PBS three times, and then lysed by addition of 200 μL of 1M NaOH to measure an absorbance at 475 nm. […]

`CC1(C)CSC(Nc2ccccc2)=N1` [Compound 1, 4,4-dimethyl-N-phenyl-4,5-dihydrothiazol-2-amine] was tested, and the “Inhibitory effect on melanin production” value was “⊚ (the minimum concentration for inhibition of melanin production was 1 ppm or less)”.
